The values that follow come from patent US10975068B2, “6-aminopyridin-3-yl thiazoles as modulators of RORγT” (Janssen Pharmaceutica NV, priority 2016, dated 2021).

The target of assay [1] is human RORγt ligand binding domain (RORγt LBD) (Homo sapiens (Human), UniProt P51449). Briefly: RORγt ThermoFluor® assay (thermal shift binding). The settings on record: read-out: ThermoFluor® Assay, Kd. The gist of the method:
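Binding was inferred from thermal stabilisation (ΔTm) of the E. coli-expressed RORγt LBD (0.065 mg/mL), monitored by 1,8-ANS (60 μM) emission at 500 nm during a 1 °C/min ramp. Buffer was Hepes 100 mM pH 7.0 with NaCl, GSH and Tween-20.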
(DSF heats the sample and reads unfolding from a dye or from intrinsic fluorescence.)

In the next assay the target is full-length human RORγt (Homo sapiens (Human), UniProt P51449). The assay can be described thus: RORγt (full-length human) reporter assay, Conditions A. As to conditions: for IC50: read-out: RORγt (FL) Reporter Assay A, IC50; for inhibition at 6 µM: read-out: RORγt (FL) Reporter Assay A, % inhibition @ 6 μM; for RORγt (FL) Reporter Assay A, % inhibition (value marked **): marked **: footnote not shown. In kind it is cell-based. An excerpt: RORγt (Full-Length Human) Reporter Assay:
Cells used in this assay were transiently co-transfected with three different plasmids, one expressing the GAL4-DNA binding domain (DBD)-RORγt fusion protein under control of a CMV promoter (NH2-Gal4-DBD:RORC-COOH in pCMV-BD, Stratagene #211342), and two reporter plasmids—the firefly luciferase reporter under control of a GAL4 promoter (pFR-Luc 2×GAL4) and Renilla luciferase reporter under control of CMV promoter (pRL-CMV, Promega # E2261). The full-length coding sequence was used for human RORγt, i.e., nucleotides 142-1635 of human RORγt, transcript variant 2, NCBI Accession: NM_001001523.1 (SEQ ID NO:1). HEK293T cells were plated at 35000 per well in 96-well plate in medium of MEM with 8.6% FBS. After 18-22 hours incubation, the transfection was carried out by using a PEI solution with 170.5 ng total DNA/well (50 ng pCMV-BD-ROR plus 20 ng of pFR-Luc reporter and 0.5 ng of pRL-CMV reporter plus 100 ng Carrier DNA (Clontech #630440) for each well). 4-6 hours after transfection, cells were treated with compounds for overnight in the medium with final concentration of FBS 1.1% and DMSO 0.1%. After overnight (16 to 20 hours) incubation, media were removed and cells were lysed with 20 μL 1× Passive Lysis Buffer (Promega) for 10-15 minutes. Luminescence was measured using a BMG LUMIstar OPTIMA plate reader, after addition of 75 μL/well firefly luciferase buffer, followed by 75 μL/well Renilla luciferase buffer. To calculate the effect of compounds on RORγt activity, firefly values were normalized against values of DMSO only and values of reference compound at saturating concentration, then further normalized against Renilla signals. IC50s were generated by plotting final Renilla normalized data against compound concentration and percent inhibition was calculated against DMSO control.
For orientation: A reporter such as luciferase makes a cellular process visible.

Where two headings read alike, the source gives them in different places.

full-length human RORγt, sequence (P51449 other isoform, or with tags, fused parts or gaps): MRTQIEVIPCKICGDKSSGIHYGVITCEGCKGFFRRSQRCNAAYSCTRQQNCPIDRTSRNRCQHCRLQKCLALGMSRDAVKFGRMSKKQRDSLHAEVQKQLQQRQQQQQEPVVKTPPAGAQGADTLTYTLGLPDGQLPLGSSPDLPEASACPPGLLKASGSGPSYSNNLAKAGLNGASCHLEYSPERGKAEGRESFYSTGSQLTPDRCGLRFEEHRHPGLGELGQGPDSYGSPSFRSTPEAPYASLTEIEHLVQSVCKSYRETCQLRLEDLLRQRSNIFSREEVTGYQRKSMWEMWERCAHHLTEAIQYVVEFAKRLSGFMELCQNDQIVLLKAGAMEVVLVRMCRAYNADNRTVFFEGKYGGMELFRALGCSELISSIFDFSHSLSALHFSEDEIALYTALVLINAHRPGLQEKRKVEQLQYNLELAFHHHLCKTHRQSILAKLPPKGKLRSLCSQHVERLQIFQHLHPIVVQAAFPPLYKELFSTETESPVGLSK
human RORγt ligand binding domain (RORγt LBD), sequence (P51449 other isoform, or with tags, fused parts or gaps): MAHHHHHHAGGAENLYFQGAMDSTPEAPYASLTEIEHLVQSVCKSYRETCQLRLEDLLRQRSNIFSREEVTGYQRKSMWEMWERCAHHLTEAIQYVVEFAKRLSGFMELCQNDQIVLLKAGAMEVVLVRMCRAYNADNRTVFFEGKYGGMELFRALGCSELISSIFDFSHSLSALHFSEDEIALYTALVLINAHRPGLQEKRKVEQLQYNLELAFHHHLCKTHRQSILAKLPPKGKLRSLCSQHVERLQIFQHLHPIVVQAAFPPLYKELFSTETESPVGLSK

By Kd is commonly meant the equilibrium constant for the complex coming apart. One may read the IC50 as the concentration needed to halve the response being measured. As usually defined, the inhibition is the relative decrease from the control value, in per cent. As for `CC(C)(O)CNC(=O)c1nc(C(=O)N2CCC(F)CC2)c(-c2cnc(NC3CCC(F)(F)C3)cc2C(F)(F)F)s1` (centres unmarked) [Example 20, 5-(6-((3,3-Difluorocyclopentyl)amino)-4-(trifluoromethyl)pyridin-3-yl)-4-(4-fluoropiperidine-1-carbonyl)-N-(2-hydroxy-2-methylpropyl)thiazole-2-carboxamide], the Kd in assay [1] came out at 52 nM. Further, at full-length human RORγt (Conditions A), the IC50 was found to be 200 nM and the inhibition at 6 µM is 110%.

`CC(C)(O)CNC(=O)c1nc(C(=O)N2CCC(F)CC2)c(-c2cnc(NC3CCCC(F)(F)C3)c(C(F)(F)F)c2)s1` (centres unmarked) [Example 13, 5-(6-((3,3-Difluorocyclohexyl)amino)-5-(trifluoromethyl)pyridin-3-yl)-4-(4-fluoropiperidine-1-carbonyl)-N-(2-hydroxy-2-methylpropyl)thiazole-2-carboxamide]: the Kd in assay [1] was determined as 37 nM. Moreover, on full-length human RORγt (Conditions A), the “RORγt (FL) Reporter Assay A, % inhibition (value marked **)” value is listed as 99** % and the IC50 was 100 nM.

On to `CC(C)(O)CNC(=O)c1nc(C(=O)N2CCC(F)CC2)c(-c2cnc(NC3CCC(F)(F)CC3)cc2C(F)(F)F)s1` [Example 18, 5-(6-((4,4-Difluorocyclohexyl)amino)-4-(trifluoromethyl)pyridin-3-yl)-4-(4-fluoropiperidine-1-carbonyl)-N-(2-hydroxy-2-methylpropyl)thiazole-2-carboxamide], for which the Kd in assay [1] worked out at 80 nM. Further, on full-length human RORγt (Conditions A), the IC50 was 620 nM and the inhibition at 6 µM came out at 106%.

As for `CC(C)(O)CNC(=O)c1nc(C(=O)N2CCC(F)CC2)c(-c2cnc(NCCC(F)(F)F)cc2C(F)(F)F)s1` [Example 8, 4-(4-Fluoropiperidine-1-carbonyl)-N-(2-hydroxy-2-methylpropyl)-5-(4-(trifluoromethyl)-6-((3,3,3-trifluoropropyl)amino)pyridin-3-yl)thiazole-2-carboxamide], in assay [1], the equilibrium dissociation constant (Kd) turned out to be 120 nM. At full-length human RORγt (Conditions A), the IC50 came out at 340 nM and the inhibition at 6 µM is 95%.

As to `CCOc1cc(NC2CCCCC2)ncc1-c1sc(C(=O)NCC(C)(C)O)nc1C(=O)N1CCC(F)CC1` [Example 69, 5-(6-(Cyclohexylamino)-4-ethoxypyridin-3-yl)-4-(4-fluoropiperidine-1-carbonyl)-N-(2-hydroxy-2-methylpropyl)thiazole-2-carboxamide], the Kd in assay [1] worked out at 170 nM. Also, on full-length human RORγt (Conditions A), the half-inhibitory concentration (IC50) is 630 nM and the inhibition at 6 µM worked out at 85%.

For the molecule `C[C@H]1CCCCN1C(=O)c1nc(C(=O)NC2CCS(=O)(=O)CC2)sc1-c1cnc(NC2CCCCC2)cc1C(F)(F)F` [Example 17, (S)-5-(6-(Cyclohexylamino)-4-(trifluoromethyl)pyridin-3-yl)-N-(1,1-dioxidotetrahydro-2H-thiopyran-4-yl)-4-(2-methylpiperidine-1-carbonyl)thiazole-2-carboxamide], the Kd in assay [1] turned out to be 0.15 nM. In addition, at full-length human RORγt (Conditions A), the “RORγt (FL) Reporter Assay A, % inhibition (value marked **)” value is 95** % and the IC50 was 9 nM.

As for `CC(C)S(=O)(=O)Nc1cc(C(F)(F)F)c(-c2sc(C(=O)NCC(C)(C)O)nc2C(=O)N2CCC(F)CC2)cn1` [Comparator Example 3, 4-(4-Fluoropiperidine-1-carbonyl)-N-(2-hydroxy-2-methylpropyl)-5-(6-((1-methylethyl)sulfonamido)-4-(trifluoromethyl)pyridin-3-yl)thiazole-2-carboxamide, reference compound], the Kd in assay [1] came to 53000 nM. Further, the IC50 on full-length human RORγt (HEK293T cells) was over 6000 nM.

Take `CC(C)(O)CNC(=O)c1nc(C(=O)N2CCC(F)CC2)c(-c2cnc(NC3CCCCC3)c(C(F)F)c2)s1` [Example 6, 5-(6-(Cyclohexylamino)-5-(difluoromethyl)pyridin-3-yl)-4-(4-fluoropiperidine-1-carbonyl)-N-(2-hydroxy-2-methylpropyl)thiazole-2-carboxamide]: the Kd in assay [1] is about 10 nM. Besides, at full-length human RORγt (Conditions A), the IC50 was found to be 160 nM and the inhibition at 6 µM turned out to be 110%.

For the molecule `Cc1c(-c2sc(C(=O)NCC(C)(C)O)nc2C(=O)N2CCC(F)CC2)cnc(NC2CCCCC2)c1F` [Example 66, 5-(6-(Cyclohexylamino)-5-fluoro-4-methylpyridin-3-yl)-4-(4-fluoropiperidine-1-carbonyl)-N-(2-hydroxy-2-methylpropyl)thiazole-2-carboxamide], the Kd in assay [1] came to 41 nM. Besides, on full-length human RORγt (Conditions A), the IC50 was determined as 150 nM and the inhibition at 6 µM was 85%.

For the molecule `C[C@H]1CCCCN1C(=O)c1nc(C(=O)NCC(C)(C)O)sc1-c1cnc(NC2CCCCC2)c(C(F)(F)F)c1` [Example 4, (S)-5-(6-(Cyclohexylamino)-5-(trifluoromethyl)pyridin-3-yl)-N-(2-hydroxy-2-methylpropyl)-4-(2-methylpiperidine-1-carbonyl)thiazole-2-carboxamide], the dissociation constant (Kd) in assay [1] worked out at 0.98 nM. On full-length human RORγt (Conditions A), the IC50 came to 9 nM and the inhibition at 6 µM amounted to 106%.

In the case of `CC(C)(O)CNC(=O)c1nc(C(=O)N2CCC(F)CC2)c(-c2cnc(NC3CC4(C3)CC(F)(F)C4)cc2C(F)(F)F)s1` [Example 22, 5-(6-((6,6-Difluorospiro[3.3]heptan-2-yl)amino)-4-(trifluoromethyl)pyridin-3-yl)-4-(4-fluoropiperidine-1-carbonyl)-N-(2-hydroxy-2-methylpropyl)thiazole-2-carboxamide], the Kd in assay [1] worked out at 440 nM. On full-length human RORγt (Conditions A), the IC50 was determined as 910 nM and the inhibition at 6 µM is 84%.

For `CC(C)(O)CNC(=O)c1nc(C(=O)N2CCC(F)CC2)c(-c2cnc(NC3CCCCC3)c(OC(F)F)c2)s1` [Example 62, 5-(6-(Cyclohexylamino)-5-(difluoromethoxy)pyridin-3-yl)-4-(4-fluoropiperidine-1-carbonyl)-N-(2-hydroxy-2-methylpropyl)thiazole-2-carboxamide], the Kd in assay [1] came to 12 nM. In addition, at full-length human RORγt (Conditions A), the IC50 is 160 nM and the inhibition at 6 µM was 98%.

As to `Cc1cc(NC2CCCCC2)ncc1-c1sc(C(=O)NCC(C)(C)O)nc1C(=O)N1CCC(F)CC1` [Example 67, 5-(6-(Cyclohexylamino)-4-methylpyridin-3-yl)-4-(4-fluoropiperidine-1-carbonyl)-N-(2-hydroxy-2-methylpropyl)thiazole-2-carboxamide], the Kd in assay [1] stood at 52 nM. Besides, at full-length human RORγt (Conditions A), the half-maximal inhibitory concentration (IC50) was determined as 400 nM and the inhibition at 6 µM was determined as 98%.

For `CC(C)(O)CNC(=O)c1nc(C(=O)N2CCC(F)CC2)c(-c2cnc(NCCC(F)(F)F)c(C(F)(F)F)c2)s1` [Example 7, 4-(4-Fluoropiperidine-1-carbonyl)-N-(2-hydroxy-2-methylpropyl)-5-(5-(trifluoromethyl)-6-((3,3,3-trifluoropropyl)amino)pyridin-3-yl)thiazole-2-carboxamide], in assay [1], the Kd amounted to 230 nM. On full-length human RORγt (Conditions A), the IC50 amounted to 620 nM and the inhibition at 6 µM is 80%.

Consider `CC(C)(O)CNC(=O)c1nc(C(=O)N2CCC(F)CC2)c(-c2cnc(NC3CCCCC3)cc2C(F)F)s1` [Example 14, 5-(6-(Cyclohexylamino)-4-(difluoromethyl)pyridin-3-yl)-4-(4-fluoropiperidine-1-carbonyl)-N-(2-hydroxy-2-methylpropyl)thiazole-2-carboxamide], for which the Kd in assay [1] was found to be 33 nM. On full-length human RORγt (Conditions A), the IC50 was found to be 76 nM and the inhibition at 6 µM stood at 105%.
